The target of assay [1] is T1, opioid δ receptor (Homo sapiens, UniProt P41143).
T1 construct: expressed in transfected cells; host or cells: CHO cells
Description: Opioid receptor functional test (Lance Ultra cAMP Kit), δ receptor agonist activity. The assay is classed as cell-based. The method, then: (§1) Functional activities of the compounds of the present invention for the μ, […], and κ opioid receptors were investigated.
(§2) The test was performed according to a prescribed method by using Lance Ultra cAMP Kit (Perkin-Elmer). The agonist activities were evaluated as follows. The CHO cells expressing each opioid receptor (μ, δ, or κ) and a test compound were reacted in an assay buffer (1×HBSS, […], pH 7.4, […] IBMX (isobutylmethylxanthine), 7.5% BSA) for 30 minutes in the presence of 10 μM forskolin. Then, the cAMP detection reagent included in the kit was added, and after 1 hour, time-resolved fluorescence measurements were performed by using the EnVision plate reader (Perkin-Elmer). A dose-responce curve of the test compound was obtained from fluorescence values measured at 665 nm, and EC50 value and Emax value were calculated. The Emax value was calculated as a ratio of the maximum responce of the test compound with respect to the maximum responce of each control agent (SNC80 for δ, DAMGO for μ, U-69593 for κ) taken as 100%.
(§3) 1): Hydrochloride was used.

The target of assay [2] is T2, opioid κ receptor (Homo sapiens, UniProt P41145).
T2 construct: expressed in transfected cells; host or cells: CHO cells
Description: Opioid receptor functional test (Lance Ultra cAMP Kit), κ receptor agonist activity. The assay is classed as cell-based. As to conditions: maximum concentration (10 μM), reaction did not reach the maximum, EC50 N.C.; relative to U-69593; hydrochloride was used; read-out: κ Receptor responce rate at the maximum concentration (reference value). The procedure: as §1, §2, §3

For assay [3], the target named is T3, opioid μ receptor (Homo sapiens, UniProt P35372).
T3 construct: expressed in transfected cells; host or cells: CHO cells
Description: Opioid receptor functional test (Lance Ultra cAMP Kit), μ receptor agonist activity. The format is cell-based. The settings on record: maximum concentration (10 μM), reaction did not reach the maximum, EC50 N.C.; relative to DAMGO; hydrochloride was used; read-out: μ Receptor responce rate at the maximum concentration (reference value). The method, then: as §1, §2, §3

Assay [4] deals with ICR male mice. Description: Analgesic activity (acetic acid writhing method). The settings on record: Mus musculus, sc; 3 mg/kg subcutaneous, 0.6% acetic acid i.p., writhing inhibition rate vs solvent group; hydrochloride was used; read-out: Inhibitory activities against writhing. The assay is classed as in vivo. The procedure: ICR male mice were used as groups each consisting of eight mice. Twenty minutes after the subcutaneous administration of a test compound (3 mg/kg), a 0.6% aqueous solution of acetic acid was intraperitoneally administered (0.1 mL/10 g body weight), and from the point 5 minutes after the administration, number of writhing observed over 20 minutes was counted. The analgesic activity was evaluated on the basis of the writhing inhibition rate (% inhibition) of the test compound administration group with respect to the writhing number of the solvent administration group.
1): Hydrochloride was used. 2): The evaluation results of the inhibitory activities against writhing were classified on the basis of the inhibition rate as follows. ≧90%, +++; 70≦%<90, ++; 50≦%<70, +

The structures appear in SMILES notation. Bounds are passed on as bounds.

T1 sequence (P41143 whole entry): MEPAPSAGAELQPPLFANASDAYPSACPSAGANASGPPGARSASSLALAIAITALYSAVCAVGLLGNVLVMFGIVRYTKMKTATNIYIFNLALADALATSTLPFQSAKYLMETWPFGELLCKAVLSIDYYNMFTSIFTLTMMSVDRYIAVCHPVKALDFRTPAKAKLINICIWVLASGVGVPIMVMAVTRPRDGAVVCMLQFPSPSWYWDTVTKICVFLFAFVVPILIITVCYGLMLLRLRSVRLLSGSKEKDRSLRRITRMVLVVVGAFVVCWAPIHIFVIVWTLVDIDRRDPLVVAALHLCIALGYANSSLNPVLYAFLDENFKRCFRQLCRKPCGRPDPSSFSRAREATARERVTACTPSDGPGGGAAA
T3 sequence (P35372 whole entry): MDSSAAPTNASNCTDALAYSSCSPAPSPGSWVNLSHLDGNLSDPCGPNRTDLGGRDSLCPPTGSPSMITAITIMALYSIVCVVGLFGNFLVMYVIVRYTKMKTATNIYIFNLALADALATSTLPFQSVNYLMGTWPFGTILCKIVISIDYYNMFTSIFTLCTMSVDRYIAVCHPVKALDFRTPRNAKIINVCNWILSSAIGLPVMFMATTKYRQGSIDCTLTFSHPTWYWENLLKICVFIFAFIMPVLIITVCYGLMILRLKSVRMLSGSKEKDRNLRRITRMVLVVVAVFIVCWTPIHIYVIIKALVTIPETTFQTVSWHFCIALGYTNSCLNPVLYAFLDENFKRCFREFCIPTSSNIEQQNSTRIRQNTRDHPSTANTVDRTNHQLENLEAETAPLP
T2 sequence (P41145 whole entry): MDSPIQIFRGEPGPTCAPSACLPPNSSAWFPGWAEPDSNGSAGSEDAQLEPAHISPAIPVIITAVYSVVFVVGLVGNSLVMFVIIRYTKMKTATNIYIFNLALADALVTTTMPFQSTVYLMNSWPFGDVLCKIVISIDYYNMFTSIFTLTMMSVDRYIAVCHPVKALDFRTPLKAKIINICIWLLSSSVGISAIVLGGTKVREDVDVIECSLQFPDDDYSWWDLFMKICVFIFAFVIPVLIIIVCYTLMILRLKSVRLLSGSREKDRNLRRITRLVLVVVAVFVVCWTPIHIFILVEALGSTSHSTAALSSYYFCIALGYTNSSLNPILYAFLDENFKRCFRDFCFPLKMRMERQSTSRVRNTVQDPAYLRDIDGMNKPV

Broadly, the EC50 is the midpoint of the concentration-response curve. Higher therefore signals lower potency in that assay. Consider `O=C(c1ccccc1)N1C[C@H]2C[C@@]34CC[C@@H]1[C@@H]2[C@@]31CCN(CC2CC2)[C@@H]4Cc2ccc(O)cc21` [Compound 78, [(1S,3aR,5aS,6R,11bR,11cS)-14-(cyclopropylmethyl)-10-hydroxy-1,2,3a,4,5,6,7,11c-octahydro-3H-6,11b-(iminoethano)-1,5a-methanonaphtho[1,2-e]indol-3-yl](phenyl)methanone], for which the EC50 in assay [1] was < 1 nM. The Emax in assay [1] (read-out: δ Receptor Emax) worked out at 83%. The Emax at 10 µM was determined as 5.5% in assay [2] and 4.7% in assay [3]. In assay [4], the inhibition in vivo at 3 mg/kg lay within 50 to 70%.
